According to ChEMBL document CHEMBL1201862, “PubChem BioAssay data set” (2004):
The source made the active and inactive calls.

Columns and labels:
[1] = target: T1, Replicative DNA helicase DnaB (Mycobacterium tuberculosis, UniProt P9WMR3); test: DnaB intein splicing inhibitors, dose response, biochemical, cell-free fluorescence (AID 449749); assay type: functional
T1 sequence (P9WMR3 whole entry): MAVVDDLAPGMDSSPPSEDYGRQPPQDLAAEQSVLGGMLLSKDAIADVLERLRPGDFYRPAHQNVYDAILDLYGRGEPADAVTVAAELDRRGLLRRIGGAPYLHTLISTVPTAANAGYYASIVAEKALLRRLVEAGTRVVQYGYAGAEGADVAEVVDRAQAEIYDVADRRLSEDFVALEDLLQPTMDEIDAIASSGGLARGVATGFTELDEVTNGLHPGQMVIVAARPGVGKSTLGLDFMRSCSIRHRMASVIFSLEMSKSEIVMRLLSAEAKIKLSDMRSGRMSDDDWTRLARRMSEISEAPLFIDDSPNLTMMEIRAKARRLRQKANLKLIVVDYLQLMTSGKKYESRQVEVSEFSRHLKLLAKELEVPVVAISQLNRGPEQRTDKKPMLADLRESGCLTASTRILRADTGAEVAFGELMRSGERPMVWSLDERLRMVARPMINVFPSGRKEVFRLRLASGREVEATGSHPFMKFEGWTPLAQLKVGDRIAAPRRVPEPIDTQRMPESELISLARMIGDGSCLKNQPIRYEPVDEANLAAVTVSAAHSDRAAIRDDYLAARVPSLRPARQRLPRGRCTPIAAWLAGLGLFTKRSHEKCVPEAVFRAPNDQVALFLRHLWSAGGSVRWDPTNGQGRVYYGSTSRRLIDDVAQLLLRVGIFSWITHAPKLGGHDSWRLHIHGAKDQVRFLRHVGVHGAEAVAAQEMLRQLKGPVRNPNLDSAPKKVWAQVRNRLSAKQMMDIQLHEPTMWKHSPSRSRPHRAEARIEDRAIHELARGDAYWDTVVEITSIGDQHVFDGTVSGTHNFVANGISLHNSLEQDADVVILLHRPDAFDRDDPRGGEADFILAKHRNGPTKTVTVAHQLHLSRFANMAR

Protein RecA = target: T2, Protein RecA (Mycobacterium tuberculosis, UniProt P9WHJ3); test: Fluorescence Cell-Free Homogeneous Dose Retest to Identify Inhibitors of RecA-Intein Splicing Activity. [Related pubchem assays (depositor defined):AID2097, AID2223, AID489010, AID492950]; assay type: functional
T2 sequence (P9WHJ3 whole entry): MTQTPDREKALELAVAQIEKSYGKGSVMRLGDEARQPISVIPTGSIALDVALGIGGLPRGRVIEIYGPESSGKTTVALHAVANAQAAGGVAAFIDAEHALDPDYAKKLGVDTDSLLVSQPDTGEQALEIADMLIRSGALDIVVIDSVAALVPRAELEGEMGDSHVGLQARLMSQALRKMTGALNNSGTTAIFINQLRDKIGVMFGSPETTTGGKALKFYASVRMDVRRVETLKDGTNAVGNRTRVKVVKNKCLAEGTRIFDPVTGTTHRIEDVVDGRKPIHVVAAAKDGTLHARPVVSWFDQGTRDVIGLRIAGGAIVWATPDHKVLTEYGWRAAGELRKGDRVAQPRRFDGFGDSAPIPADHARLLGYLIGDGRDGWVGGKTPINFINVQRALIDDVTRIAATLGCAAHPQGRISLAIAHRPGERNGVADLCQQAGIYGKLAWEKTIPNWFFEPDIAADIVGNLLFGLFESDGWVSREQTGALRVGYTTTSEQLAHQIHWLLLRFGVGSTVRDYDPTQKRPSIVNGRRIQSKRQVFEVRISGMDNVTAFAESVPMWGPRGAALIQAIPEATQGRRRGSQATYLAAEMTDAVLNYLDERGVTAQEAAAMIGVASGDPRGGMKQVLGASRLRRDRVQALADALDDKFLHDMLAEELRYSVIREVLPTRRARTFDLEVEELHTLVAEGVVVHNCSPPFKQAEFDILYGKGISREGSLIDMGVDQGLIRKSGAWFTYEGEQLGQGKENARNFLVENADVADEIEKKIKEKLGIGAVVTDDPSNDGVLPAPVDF

[2] = target: T3, Calpain-2 catalytic subunit (Sus scrofa, UniProt P43367); test: pig calpain II inhibitor potency, dose response, biochemical, fluorogenic peptide substrate (AID 1420); assay type: functional
T3 sequence (P43367 whole entry): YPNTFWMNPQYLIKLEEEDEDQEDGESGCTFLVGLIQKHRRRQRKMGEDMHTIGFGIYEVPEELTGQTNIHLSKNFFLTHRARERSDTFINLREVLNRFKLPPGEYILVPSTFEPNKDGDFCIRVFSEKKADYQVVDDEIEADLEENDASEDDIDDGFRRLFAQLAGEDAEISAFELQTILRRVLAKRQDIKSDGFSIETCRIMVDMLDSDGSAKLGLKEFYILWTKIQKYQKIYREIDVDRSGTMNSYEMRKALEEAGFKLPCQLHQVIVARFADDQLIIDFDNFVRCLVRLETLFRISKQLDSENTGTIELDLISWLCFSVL

[3] = target: T4, Corticotropin-releasing factor receptor 2/Corticotropin-releasing factor-binding protein (Homo sapiens, UniProt P24387+Q13324); test: Dose Response confirmation of uHTS hits for small molecule antagonists of the CRF-binding protein and CRF-R2 receptor complex.; assay type: functional; details: read-out: IC50_Mean
T4 sequence (Q13324 whole entry): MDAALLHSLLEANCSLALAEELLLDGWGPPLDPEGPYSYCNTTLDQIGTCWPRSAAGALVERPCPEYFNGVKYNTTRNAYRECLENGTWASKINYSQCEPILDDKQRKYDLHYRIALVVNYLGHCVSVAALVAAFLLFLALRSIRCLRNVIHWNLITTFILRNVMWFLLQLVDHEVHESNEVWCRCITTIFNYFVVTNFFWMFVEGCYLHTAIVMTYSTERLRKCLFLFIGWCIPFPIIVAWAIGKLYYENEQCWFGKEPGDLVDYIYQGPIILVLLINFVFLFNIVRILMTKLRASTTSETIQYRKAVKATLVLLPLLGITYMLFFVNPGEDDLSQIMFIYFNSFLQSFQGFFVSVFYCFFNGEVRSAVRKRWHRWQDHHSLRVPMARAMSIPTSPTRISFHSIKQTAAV
T4 sequence (P24387 whole entry): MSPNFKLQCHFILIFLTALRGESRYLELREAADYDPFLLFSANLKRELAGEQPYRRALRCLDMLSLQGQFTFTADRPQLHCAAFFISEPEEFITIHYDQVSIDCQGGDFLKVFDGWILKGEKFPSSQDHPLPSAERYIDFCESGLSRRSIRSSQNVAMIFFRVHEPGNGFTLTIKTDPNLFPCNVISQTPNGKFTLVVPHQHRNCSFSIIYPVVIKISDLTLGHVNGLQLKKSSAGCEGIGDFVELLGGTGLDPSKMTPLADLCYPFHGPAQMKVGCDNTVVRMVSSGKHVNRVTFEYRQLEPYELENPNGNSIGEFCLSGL

[4] = target: T4, Corticotropin-releasing factor receptor 2/Corticotropin-releasing factor-binding protein; test: activators of CRF receptor 2 with binding protein – uHTS hits, confirmation (AID 602473); assay type: functional; details: read-out: EC50_Mean
H9c2 = test: cells; assay type: functional, cell-based; details: Rattus norvegicus, H9c2, Myocardium;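 note: confirmatory concentration-response retest of ultra-high-throughput screening hits for modulation of myocardial damage; cell death induced by hydrogen peroxide oxidative stress; compound pretreatment for 60 min then peroxide exposure for 2 h; potency is for protecting the cells against peroxide damage rather than for killing them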
H4 = test: Luminescence Cell-Based Dose Response HTS to Identify Activators of 5'UTR Stem-Loop Driven Prion Protein mRNA Translation in H4 Neuroglioblastoma Cells. [Related pubchem assays: 1829 (Project Summary), 1814 (Primary HTS)]; assay type: functional; details: Homo sapiens
Cytochrome P450 2D6 = Cytochrome P450 2D6 (Homo sapiens, UniProt P10635);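 note: CYP2D6 member of a cytochrome P450 panel assay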
Cytochrome P450 1A2 = target: T5, Cytochrome P450 1A2 (Homo sapiens, UniProt P05177);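 note: PubChem cytochrome P450 panel assay, CYP1A2 panel member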
T5 sequence (P05177 whole entry): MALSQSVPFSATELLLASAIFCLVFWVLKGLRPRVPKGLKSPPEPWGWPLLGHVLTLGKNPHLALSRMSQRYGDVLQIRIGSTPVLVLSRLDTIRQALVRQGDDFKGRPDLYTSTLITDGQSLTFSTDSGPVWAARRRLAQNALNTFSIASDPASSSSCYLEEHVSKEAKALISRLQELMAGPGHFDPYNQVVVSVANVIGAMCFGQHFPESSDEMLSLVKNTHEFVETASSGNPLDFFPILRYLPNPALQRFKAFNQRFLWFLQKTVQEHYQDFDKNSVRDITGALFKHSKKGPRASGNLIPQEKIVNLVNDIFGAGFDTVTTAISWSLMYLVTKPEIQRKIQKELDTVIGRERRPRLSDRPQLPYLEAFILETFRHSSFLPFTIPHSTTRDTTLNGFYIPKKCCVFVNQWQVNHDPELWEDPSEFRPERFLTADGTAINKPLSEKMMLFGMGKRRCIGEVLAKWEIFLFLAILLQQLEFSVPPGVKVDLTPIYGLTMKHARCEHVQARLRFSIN

Sequence of Cytochrome P450 2D6 (P10635 whole entry): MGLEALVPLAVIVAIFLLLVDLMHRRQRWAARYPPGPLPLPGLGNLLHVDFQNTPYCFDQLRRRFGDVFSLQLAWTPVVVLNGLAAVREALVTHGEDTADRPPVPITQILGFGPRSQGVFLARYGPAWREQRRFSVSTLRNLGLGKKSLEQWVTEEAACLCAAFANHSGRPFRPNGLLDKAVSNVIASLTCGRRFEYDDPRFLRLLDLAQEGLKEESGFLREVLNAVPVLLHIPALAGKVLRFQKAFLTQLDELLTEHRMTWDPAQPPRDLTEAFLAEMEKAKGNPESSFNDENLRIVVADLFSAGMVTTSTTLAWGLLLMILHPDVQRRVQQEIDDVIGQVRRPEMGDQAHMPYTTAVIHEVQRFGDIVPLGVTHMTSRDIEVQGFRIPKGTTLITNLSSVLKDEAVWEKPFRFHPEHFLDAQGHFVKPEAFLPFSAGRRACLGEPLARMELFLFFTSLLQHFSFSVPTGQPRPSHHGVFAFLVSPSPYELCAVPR

COc1ccc(-c2cc(CNC(=O)CCl)on2)cc1
AC50 [1]: 262 µM (active)
EC50 (Protein RecA): 17.7 µM (active)

CC(CCc1ccccc1)NC(=O)/C=C/c1ccc(F)cc1 (stereo unspecified)
IC50 [2]: 27.6 µM (not active)

O=C(CCn1nc(-c2ccccc2)ccc1=O)N1CCOCC1
IC50 [3]: > 47.1 µM (inactive)
EC50 [4]: > 53 µM (inactive)

Cc1sc2nc(CSCC(=O)N(CCC#N)c3ccccc3F)nc(O)c2c1C
IC50 (H9c2): > 79 µM (inactive)

CCO/C(O)=C1/C(C)=NC(SCC(=O)OC)=C(C#N)C1c1ccc(C(=O)OC)cc1 (stereo unspecified)
IC50 [3]: < 0.368 µM (active)
EC50 [4]: > 53 µM (inactive)

COc1ccc(/C=C2/C(=O)N(Cc3ccccc3)N=C2C)cc1
AC50 [1]: 4.12 µM (active)
EC50 (Protein RecA): 1.91 µM (active)

COc1cc(-c2cc3nc(NCCOc4ccccc4)ccn3n2)cc(OC)c1OC
IC50 (H9c2): > 79 µM (inactive)

CCC(C)(C)NC(=O)c1ccc(S(=O)(=O)N2CCCCCC2)cc1
IC50 [2]: 22.9 µM (not active)

CCc1ccc(NC(=O)c2ccccc2NC(=O)C2CCCO2)cc1 (stereo unspecified)
EC50 (H4): 2.64 µM (active)

O=C1CC/[N+](=C\c2ccc(Cl)cc2)[N-]1
AC50 [1]: 150 µM (active)
EC50 (Protein RecA): 3.64 µM (active)

CCOC(=O)N1CCN(C(=O)CSc2nnc(CNC(=O)c3ccccc3F)o2)CC1
IC50 [3]: > 47.1 µM (inactive)
EC50 [4]: > 53 µM (inactive)

COc1ccc(C(=O)ON=C(N)Cc2ccc(Cl)c(Cl)c2)cc1OC
IC50 [3]: 7.41 µM (active)
EC50 [4]: > 53 µM (inactive)

COC(=O)c1ccc(/C=N/NS(=O)(=O)c2cc(C)ccc2C)cc1
IC50 [2]: 6.58 µM (not active)

O=[N+]([O-])c1cc(-c2nnc(O)c3ccccc23)ccc1NCCO
IC50 (H9c2): 16.6 µM (active)

CC1C(=O)C(C)C(c2cc(Br)ccc2O)NC1c1cc(Br)ccc1O (stereo unspecified)
IC50 [3]: > 47.1 µM (inactive)
EC50 [4]: > 53 µM (inactive)

CCNc1nc(NC(C)CC)nc(Oc2ccc(OCC)nn2)n1 (stereo unspecified)
IC50 [3]: > 47.1 µM (inactive)
EC50 [4]: > 53 µM (inactive)

COCc1nc2ccccc2n1Cc1ccc(Br)cc1
IC50 [2]: 8.1 µM (not active)

Cn1c(N)c(C(=O)COC(=O)C23CC4CC(CC(C4)C2)C3)c(=O)n(C)c1=O
IC50 [2]: 2.26 µM (active)

CCOc1cc(C(c2c(C)n[nH]c2O)c2c(C)n[nH]c2O)ccc1OCc1ccc([N+](=O)[O-])cc1
AC50 [1]: 0.281 µM (active)
EC50 (Protein RecA): 0.159 µM (active)

O=C(OCc1nnn(Cc2ccccc2)c1-c1c(COC(=O)c2ccccc2)nnn1Cc1ccccc1)c1ccccc1
IC50 [2]: 2.52 µM (not active)

CN1CCN(CCc2nc3cc(NC(=O)c4ccco4)ccc3n2C)CC1
IC50 [2]: > 50 µM (not active)

COCc1c(C(=O)Nc2ccc3nc(N4CCOCC4)sc3c2)oc2ccccc12
IC50 (H9c2): > 79 µM (inactive)

Cc1cccc([N+]2=C3CCCCN3C(O)(c3cccs3)C2)c1 (stereo unspecified)
IC50 [3]: > 47.1 µM (inactive)
EC50 [4]: > 53 µM (inactive)

O=C1CCc2nc3ccccc3c(=O)n2N1
IC50 [3]: > 47.1 µM (inactive)
EC50 [4]: > 53 µM (inactive)

O=C1CC(c2cccnc2)=NN1c1ccccc1
AC50 [1]: 3.7 µM (active)
EC50 (Protein RecA): 13.9 µM (active)

Cc1ccc(S(=O)(=O)Nc2cc(O)nc(SCC(=O)Nc3cccc(C(F)(F)F)c3)n2)cc1
IC50 [3]: > 47.1 µM (inactive)
EC50 [4]: > 53 µM (inactive)

CCCCOc1ccc(C(=O)N/C(=C\c2ccc(OC)cc2)C(=O)OCc2ccco2)cc1
IC50 (H9c2): > 79 µM (inactive)
AC50 (Cytochrome P450 2D6): 7.94 µM (inconclusive)
AC50 (Cytochrome P450 1A2): 14.1 µM (inconclusive)

CCOc1ccc(NC(=NCc2ccc3c(c2)OCO3)SC2CC(=O)N(c3ccccc3)C2=O)cc1 (stereo unspecified)
IC50 [2]: > 50 µM (not active)

Cc1ccc(NC(=O)NN(C)c2c(Cl)c(Cl)nn2C)cc1
IC50 [2]: > 50 µM (not active)

CN(c1ccccc1)c1ccc([N+](=O)[O-])c2nonc12
AC50 [1]: 74.7 µM (active)
EC50 (Protein RecA): 5.22 µM (active)

COc1ccccc1/N=C1\C(Cl)=C(O)OC1OC(=O)c1ccco1 (stereo unspecified)
AC50 [1]: 12.5 µM (active)
EC50 (Protein RecA): 13.4 µM (active)

CC(C)c1ccc(C(=O)NC(=S)NCc2cccnc2)cc1
IC50 [2]: 27 µM (not active)

CCOC(=O)C1=NN(C(=O)c2ccco2)C2(CC2)C1
IC50 (H9c2): > 79 µM (inactive)
